From ChEMBL document CHEMBL1135144, “N-(pyrimidin-4-yl) and N-(pyridin-2-yl) phenylalanine derivatives as VLA-4 integrin antagonists” (Bioorg Med Chem Lett, 2002)

Experiment: Compound was evaluated for rate of clearance in IPRL (Isolated Perfused Rat Liver)
Format: ADME

SMILES	k el
CCCCCCS(=O)(=O)c1nc(N[C@@H](Cc2ccc(NC(=O)c3c(Cl)cncc3Cl)cc2)C(=O)O)cc(C(=O)O)n1	0.000861 s⁻¹
CCCS(=O)(=O)c1cc(N[C@@H](Cc2ccc(NC(=O)c3c(Cl)cncc3Cl)cc2)C(=O)O)ncn1	0.00122 s⁻¹
COc1cc(N[C@@H](Cc2ccc(NC(=O)c3c(Cl)cncc3Cl)cc2)C(=O)O)nc(S(C)(=O)=O)n1	0.00136 s⁻¹
CCC[S+]([O-])c1cc(NC(Cc2ccc(NC(=O)c3c(Cl)cncc3Cl)cc2)C(=O)O)ncc1Cl (centres undefined)	0.00128 s⁻¹
CCCS(=O)(=O)c1nc(N[C@@H](Cc2ccc(NC(=O)c3c(Cl)cncc3Cl)cc2)C(=O)O)cc(OC)n1	0.00156 s⁻¹
CCCS(=O)(=O)c1cc(NC(Cc2ccc(NC(=O)c3c(Cl)cncc3Cl)cc2)C(=O)O)ncc1C(=O)O (centres undefined)	5.56e-05 s⁻¹
CS(=O)(=O)c1cc(N[C@@H](Cc2ccc(NC(=O)c3c(Cl)cncc3Cl)cc2)C(=O)O)ncn1	0.00111 s⁻¹
CCCS(=O)(=O)c1nc(N[C@@H](Cc2ccc(NC(=O)c3c(Cl)cncc3Cl)cc2)C(=O)O)cc(C(=O)O)n1	0.00025 s⁻¹

Results, then the compound that gave them:

k el	SMILES
0.00178 s⁻¹	O=C(Nc1ccc(C[C@H](Nc2cc(Cc3ccccc3)ncn2)C(=O)O)cc1)c1c(Cl)cncc1Cl
0.00122 s⁻¹	CCCS(=O)(=O)c1nccc(N[C@@H](Cc2ccc(NC(=O)c3c(Cl)cncc3Cl)cc2)C(=O)O)n1
0.000583 s⁻¹	CCCS(=O)(=O)c1cc(NC(Cc2ccc(NC(=O)c3c(Cl)cncc3Cl)cc2)C(=O)O)ncc1Cl (centres undefined)
0.000361 s⁻¹	CSc1ncc(C(=O)O)c(N[C@@H](Cc2ccc(NC(=O)c3c(Cl)cncc3Cl)cc2)C(=O)O)n1
5.56e-05 s⁻¹	O=C(Nc1ccc(CC(Nc2ccc(Cl)cn2)C(=O)O)cc1)c1c(Cl)cncc1Cl (centres undefined)
0.00164 s⁻¹	CC(C)CS(=O)(=O)c1nc(N[C@@H](Cc2ccc(NC(=O)c3c(Cl)cncc3Cl)cc2)C(=O)O)cc(C(=O)O)n1
0.00144 s⁻¹	CCCS(=O)(=O)c1ccnc(NC(Cc2ccc(NC(=O)c3c(Cl)cncc3Cl)cc2)C(=O)O)c1 (centres undefined)
0.000861 s⁻¹	O=C(Nc1ccc(C[C@H](Nc2cc(Oc3ccccc3)ncn2)C(=O)O)cc1)c1c(Cl)cncc1Cl
0.00119 s⁻¹	CCC[S+]([O-])c1cc(N[C@@H](Cc2ccc(NC(=O)c3c(Cl)cncc3Cl)cc2)C(=O)O)ncn1 (some centres undefined)
0.00144 s⁻¹	O=C(Nc1ccc(C[C@H](Nc2cc(S(=O)(=O)Cc3ccccc3)ncn2)C(=O)O)cc1)c1c(Cl)cncc1Cl
0.00181 s⁻¹	CCCS(=O)(=O)c1nc(C)cc(N[C@@H](Cc2ccc(NC(=O)c3c(Cl)cncc3Cl)cc2)C(=O)O)n1
